# From US20190328721A1, “METHOD OF ACTIVATING DENDRITIC CELLS” (KOREA INSTITUTE OF SCIENCE AND TECHNOLOGY, priority 2018, published 2019)
# Tests used:
# OT-1 T cells = assay: Proliferation of injected CFSE-stained OT-1 T cells in B16F10-Ova-bearing mice; format: in vivo; settings: 3 days after injection
# Procedure: Specifically, Y27632 was administered to the B16F10-Ova-bearing cancer model mice according to the administration schedule described in Example 2-1, and OT-1 T cells stained with CFSE (carboxyfluorescein succinimidyl ester, Thermo Fisher Scientific, Inc., USA) were injected into the cancer model mice and the degree of proliferation of T cells was confirmed 3 days later (FIG. 14A).
# CT26.CL25 cell line = assay: CT26.CL25 tumor model in immunodeficient nude mice; format: in vivo; settings: 10 mg/kg intravenous
# Procedure: Specifically, immunodeficient nude mice were subcutaneously injected with 1×10^6 cells of CT26.CL25 cell line in order to induce cancer. After the 11 days from the injection of the cancer cells, tumor size was 50-100 mm^3, and Y27632 was administered at a dose of 10 mg/kg continuously for two consecutive days by intravenous injection, followed by a day of rest as a cycle, followed by 3 cycles of 3-day intervals (FIG. 9A). As a negative control group, only phosphate buffered saline (PBS) was administered. The tumor tissues were excised and an ex vivo image was taken. In addition, before the mice were sacrificed, the change in body weight was measured at intervals of 3 days from the 11th day of cancer cell injection in the case of CT26.CL25 cancer model, and the length (L) and width (W) were measured, and the volume of the tumor tissues was measured using the equation described in Example 2-1 (FIG. 9B).
# CT26.CL25 cells = assay: Anti-cancer immune memory (tumor removal and re-injection); format: in vivo, Balb/c wild-type mice; settings: 10 mg/kg intravenous; compared with PBS control
# Procedure: To confirm whether the ROCK inhibitor induces anti-cancer immune memory, CT26.CL25 cells (1×10^6 cells) were injected into the right flank of Balb/c wild-type mice to induce cancer, and then 10 mg/kg of Y27632 was administered continuously for two consecutive days via intravenous injection, followed by a day of rest as a cycle, followed by 3 cycles of 3-day intervals. After 22nd days from the day of cancer injection, the induced tumor was removed by surgery. One week later, the same cancer cells (7×10^6 cells) were injected to the other flank and the growth of tumor was investigated (FIG. 12A).
# CT26.CL25 cancer cells = assay: CT26.CL25 tumor model; format: in vivo, Balb/c wild type mice; settings: 10 mg/kg intravenous
# Procedure: CT26.CL25 cancer cells (1×10^6) expressing β-galactosidase were subcutaneously injected into the left back of a Balb/c wild type mice to generate a tumor model Similarly, an […] tumor model was prepared by subcutaneously injecting melanoma cell line B16F10-Ova cells (5×10^5) into the left back of C57L/B6 wild-type mice to induce cancer.
# In the case of the CT26.CL25 cancer cell line, 6 days after the injection of the cancer cells, and in the case of B 16F10-Ova, 9 days after the injection of the cancer cells, Y27632 was administered by intravenous injection at a dose of 10 mg/kg as indicated in FIG. 8a. In the case of the CT26.CL25 model, the mice were sacrificed on the 22nd day after the injection of the cancer cells and in the case of the B16F10-Ova cancer model, the mice were sacrificed on the 20th day after the injection of the cancer cells (FIG. 8A). As a negative control, phosphate-buffered saline was administered instead of Y27632.
# The tumor tissues of the mice were excised, an ex vivo image was taken and the tumor tissue were weighed (FIG. 8B). In addition, before the mice were sacrificed, changes in body weights were measured at intervals of 3 days from the 6th day of the cancer cell injection in the CT26.CL25 cancer model and at intervals of 3 days from the 9th day in the B16F10-Ova cancer model (FIG. 8c). Length (L) and width (W) of the tumor tissues were measured, and the volume of the tumor tissues over time was calculated using the following formula (FIGS. 8D and 8E):
# The volume of tumor tissue (V[mm^3])=(L[mm])[…] (W[mm])^2×0.5.
smiles,measurement,setting,value
C[C@@H](N)[C@H]1CC[C@H](C(=O)Nc2ccncc2)CC1 [Y27632],proliferation of OT-1 T cells,OT-1 T cells,significantly increased
same,anti-cancer effect (tumor volume) in nude mice lacking immune function,CT26.CL25 cell line,only a limited anti-cancer effect
same,proportion of tumor-free mice after re-injection of cancer cells,CT26.CL25 cells,significantly increased
same,body weight of the mice,CT26.CL25 cancer cells,no significant change
same,volume of the tumors,CT26.CL25 cancer cells,significantly decreased
same,weight of the tumors,CT26.CL25 cancer cells; day 22,significantly decreased
